Experimental findings from US8669271B2 (Boehringer Ingelheim International GmbH, priority 2010, dated 2014) are described below.

The experiment addresses T1, human GPR119 (Homo sapiens, UniProt Q8TDV5).
T1 construct: expression vector for human GPR119 cDNA (Acc. No. NP_848566); expressed in transfected cells
T1 sequence (Q8TDV5 1-335): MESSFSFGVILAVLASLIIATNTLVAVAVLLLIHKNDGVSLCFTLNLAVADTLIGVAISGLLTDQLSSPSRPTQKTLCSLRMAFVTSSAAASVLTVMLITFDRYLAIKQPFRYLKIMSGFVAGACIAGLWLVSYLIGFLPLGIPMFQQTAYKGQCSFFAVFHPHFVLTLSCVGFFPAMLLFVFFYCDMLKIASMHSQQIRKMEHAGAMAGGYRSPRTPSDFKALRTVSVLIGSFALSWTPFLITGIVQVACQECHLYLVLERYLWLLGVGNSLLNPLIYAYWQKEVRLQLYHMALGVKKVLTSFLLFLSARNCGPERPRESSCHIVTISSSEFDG
Briefly: AlphaScreen cAMP assay in Min-6/hGPR119 cells (activation of GPR119, intracellular cAMP). It counts as cell-based. The following applies: MIN6 cells stably transfected with human GPR119; cAMP by AlphaScreen after 45 minutes incubation at room temperature. An outline of the steps: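 MIN6 cells stably expressing human GPR119, seeded 24 h before treatment; compounds applied 45 min at ~20 °C in Hepes-buffered saline pH 7.4 with 0.5 mM IBMX, 0.1% BSA, 1% DMSO final. Intracellular cAMP measured by AlphaScreen.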
For the compound `CC(C)(C)OC(=O)N1CCC(C2Cc3cc(N4CCN(S(C)(=O)=O)CC4)ncc3O2)CC1` (stereo not shown) [Example 90, 4-[5-(4-Methanesulfonyl-piperazin-1-yl)-2,3-dihydro-furo[2,3-c]pyridin-2-yl]-piperidine-1-carboxylic acid tert-butyl ester], the EC50 stood at 0.019 µM.
As for `CC(C)OC(=O)N1CCC(C2Cc3cc(-c4ccc(C(=O)NCC5COCCO5)cc4)ccc3O2)CC1` (stereo not shown) [Example 137], the figure is 0.051 µM; as for `CC(C)OC(=O)N1CCC(C2Cc3cc(-c4ccc(C(=O)N(C)CC#N)cc4)ccc3O2)CC1` (stereo not shown) [Example 159], 0.025 µM.
Under `CC(C)OC(=O)N1CCC(C2Cc3cc(-c4ccc(C(=O)N5CC(F)(F)C5)cc4)ccc3O2)CC1` (stereo not shown) [Example 135] stands 0.038 µM; under `CC(C)(C)OC(=O)N1CCC(C2Cc3cc(-c4cncnc4)ncc3O2)CC1` (stereo not shown) [Example 33, 4-(5-Pyrimidin-5-yl-2,3-dihydro-furo[2,3-c]pyridin-2-yl)-piperidine-1-carboxylic acid tert-butyl ester], 0.19 µM; under `CC(C)OC(=O)N1CCC(C2Cc3cc(-c4cnccn4)ccc3O2)CC1` (stereo not shown) [Example 176], 0.489 µM.
Under `COc1cnc(-c2ccc3c(c2)CC(C2CCN(C(=O)OC(C)C)CC2)O3)nc1` (stereo not shown) [Example 175] stands 3.31 µM; under `CC1(OC(=O)N2CCC(C3Cc4cc(-c5ccc(S(C)(=O)=O)cc5)ncc4O3)CC2)CC1` (stereo not shown) [Example 20, 4-[5-(4-Methanesulfonyl-phenyl)-2,3-dihydro-furo[2,3-c]pyridin-2-yl]-piperidine-1-carboxylic acid 1-methyl-cyclopropyl ester], 0.017 µM.
`CC(C)OC(=O)N1CCC(C2Cc3cc(C4=CCN(S(C)(=O)=O)CC4)ncc3O2)CC1` (stereo not shown) [Example 95, 4-[5-(1-Methanesulfonyl-1,2,3,6-tetrahydro-pyridin-4-yl)-2,3-dihydro-furo[2,3-c]pyridin-2-yl]-piperidine-1-carboxylic acid isopropyl ester] showed an EC50 of 0.017 µM.
Under `CC(C)(C)OC(=O)N1CCC(C2Cc3cc(-c4ccc(C#N)nc4)ncc3O2)CC1` (stereo not shown) [Example 44, 4-[5-(6-Cyano-pyridin-3-yl)-2,3-dihydro-furo[2,3-c]pyridin-2-yl]-piperidine-1-carboxylic acid tert-butyl ester] stands 0.03 µM.
Under `CC(C)OC(=O)N1CCC(C2Cc3cc(-c4ccc(S(C)(=O)=O)cn4)ccc3O2)CC1` (stereo not shown) [Example 3, 4-[5-(5-Methanesulfonyl-pyridin-2-yl)-2,3-dihydro-benzofuran-2-yl]-piperidine-1-carboxylic acid isopropyl ester] stands 0.039 µM; under `CC(C)OC(=O)N1CCC(C2Cc3cc(-c4ccc(CC(=O)NCC(C)(C)CO)cc4)ccc3O2)CC1` (stereo not shown) [Example 152], 0.153 µM; under `CC(C)OC(=O)N1CCC(C2Cc3cc(-c4ccc(NS(C)(=O)=O)cc4)ccc3O2)CC1` (stereo not shown) [Example 121], 0.046 µM.
Consider `CC(C)(C)OC(=O)N1CCC([C@@H]2Cc3nc(-c4ccc(S(C)(=O)=O)cc4)ncc3O2)CC1` [Example 73, (S)-4-[2-(4-Methanesulfonyl-phenyl)-6,7-dihydro-furo[3,2-d]pyrimidin-6-yl]-piperidine-1-carboxylic acid tert-butyl ester], for which the EC50 turned out to be 0.027 µM.
Regarding `CC(C)(C)OC(=O)N1CCC(C2Cc3cc(-c4ccnc(C#N)c4)ncc3O2)CC1` (stereo not shown) [Example 55, 4-[5-(2-Cyano-pyridin-4-yl)-2,3-dihydro-furo[2,3-c]pyridin-2-yl]-piperidine-1-carboxylic acid tert-butyl ester], the concentration for a half-maximal effect (EC50) was 0.016 µM.
Under `CNC(=O)c1ccc(-c2ccc3c(c2)CC(C2CCN(C(=O)OC(C)(C)C)CC2)O3)nc1` (stereo not shown) [Example 42, 4-[5-(5-Methylcarbamoyl-pyridin-2-yl)-2,3-dihydro-benzofuran-2-yl]-piperidine-1-carboxylic acid tert-butyl ester] stands 0.064 µM; under `CC(O)CCNC(=O)Cc1ccc(-c2ccc3c(c2)CC(C2CCN(C(=O)OC(C)C)CC2)O3)cc1` (stereo not shown) [Example 126], 0.168 µM.
Under `CC(C)(C)OC(=O)N1CCC(C2Cc3cc(-c4ccnc(C(F)(F)F)c4)ncc3O2)CC1` (stereo not shown) [Example 56, 4-[5-(2-Trifluoromethyl-pyridin-4-yl)-2,3-dihydro-furo[2,3-c]pyridin-2-yl]-piperidine-1-carboxylic acid tert-butyl ester] stands 0.222 µM; under `CC(C)OC(=O)N1CCC(C2Cc3cc(-c4ccc(C(=O)N5CCC(C)(O)C5)cc4)ccc3O2)CC1` (stereo not shown) [Example 143], 0.094 µM.
As for `CC(C)(C)OC(=O)N1CCC(C2Cc3cc(-c4ccc(CS(C)(=O)=O)cc4)ncc3O2)CC1` (stereo not shown) [Example 49, 4-[5-(4-Methanesulfonylmethyl-phenyl)-2,3-dihydro-furo[2,3-c]pyridin-2-yl]-piperidine-1-carboxylic acid tert-butyl ester], the figure is 0.022 µM; as for `CC(C)OC(=O)N1CCC(C2Cc3cc(-c4ccc(CC(=O)N5CCC(C)(O)C5)cc4)ccc3O2)CC1` (stereo not shown) [Example 144], 0.11 µM; as for `Cc1nc(S(C)(=O)=O)ccc1-c1ccc2c(c1)CC(C1CCN(C(=O)OC(C)C)CC1)O2` (stereo not shown) [Example 18, 4-[5-(6-Methanesulfonyl-2-methyl-pyridin-3-yl)-2,3-dihydro-benzofuran-2-yl]-piperidine-1-carboxylic acid isopropyl ester], 0.147 µM.
Compound `CC(C)OC(=O)N1CCC(C2Cc3cc(-c4cccc(C#N)c4)ccc3O2)CC1` (stereo not shown) [Example 103, 4-[5-(3-Cyano-phenyl)-2,3-dihydro-benzofuran-2-yl]-piperidine-1-carboxylic acid isopropyl ester] had an EC50 of 0.186 µM.
As for `CC(=O)c1ccc(-c2ccc3c(c2)CC(C2CCN(C(=O)OC(C)C)CC2)O3)cc1` (stereo not shown) [Example 104], the figure is 0.2 µM.
On to `CC(C)(C)OC(=O)N1CCC(C2Cc3cc(-c4ccc(S(C)(=O)=O)cn4)ccc3O2)CC1` (stereo not shown) [Example 14, 4-[5-(5-Methanesulfonyl-pyridin-2-yl)-2,3-dihydro-benzofuran-2-yl]-piperidine-1-carboxylic acid tert-butyl ester], for which the concentration for a half-maximal effect (EC50) amounted to 0.013 µM.
As for `CC(C)(C)OC(=O)N1CCC(C2Cc3cc(-c4ccc(S(N)(=O)=O)cc4)ncc3O2)CC1` (stereo not shown) [Example 30, 4-[5-(4-Sulfamoyl-phenyl)-2,3-dihydro-furo[2,3-c]pyridin-2-yl]-piperidine-1-carboxylic acid tert-butyl ester], the figure is 0.084 µM.
As for `CC(C)(C)OC(=O)N1CCC(C2Cc3cc(-c4ccc(C#N)c(F)c4)ncc3O2)CC1` (stereo not shown) [Example 28, 4-[5-(4-Cyano-3-fluoro-phenyl)-2,3-dihydro-furo[2,3-c]hyridin-2-yl]-piperidine-1-carboxylic acid tert-butyl ester], the figure is 0.023 µM; as for `COC1CN(C(=O)c2ccc(-c3ccc4c(c3)CC(C3CCN(C(=O)OC(C)C)CC3)O4)cc2)C1` (stereo not shown) [Example 145], 0.038 µM.
Under `CC(C)(C)OC(=O)N1CCC(C2Cc3cc(-n4ccncc4=O)ncc3O2)CC1` (stereo not shown) [Example 60, 4-[5-(2-Oxo-2H-pyrazin-1-yl)-2,3-dihydro-furo[2,3-c]pyridin-2-yl]-piperidine-1-carboxylic acid tert-butyl ester] stands 0.522 µM; under `CC(C)OC(=O)N1CCC(C2Cc3cc(-c4cnc(C#N)nc4)ccc3O2)CC1` (stereo not shown) [Example 112], 0.32 µM; under `CC(C)(C)OC(=O)N1CCC(C2(C)Cc3cc(-c4ccc(CS(C)(=O)=O)cc4F)ncc3O2)CC1` (stereo not shown) [Example 82], 0.021 µM.
Compound `CC(C)(C)OC(=O)N1CCC(C2Cc3cc(-c4cccnc4)ncc3O2)CC1` (stereo not shown) [Example 45, 4-(5-Pyridin-3-yl-2,3-dihydro-furo[2,3-c]pyridin-2-yl)-piperidine-1-carboxylic acid tert-butyl ester] had an EC50 of 0.41 µM.
Regarding `CC(C)OC(=O)N1CCC(C2Cc3cc(-c4ccc(CN(C)S(C)(=O)=O)cc4)ccc3O2)CC1` (stereo not shown) [Example 172], the EC50 was 0.288 µM.
Under `CCNC(=O)c1ccc(-c2ccc3c(c2)CC(C2CCN(C(=O)OC(C)C)CC2)O3)cc1` (stereo not shown) [Example 109] stands 0.028 µM.
As for `CC(C)(C)OC(=O)N1CCC(C2Cc3cc(-c4ccncc4F)ncc3O2)CC1` (stereo not shown) [Example 51, 4-[5-(3-Fluoro-pyridin-4-yl)-2,3-dihydro-furo[2,3-c]pyridin-2-yl]-piperidine-1-carboxylic acid tert-butyl ester], the figure is 0.01 µM.
Under `COC(=O)c1ccc(-c2ccc3c(c2)CC(C2CCN(C(=O)OC(C)C)CC2)O3)cn1` (stereo not shown) [Example 114] stands 0.527 µM; under `CC(C)OC(=O)N1CCC(C2Cc3cc(-c4ccc(CC(=O)N5CC(F)(F)C5)cc4)ccc3O2)CC1` (stereo not shown) [Example 136], 0.011 µM; under `CC(C)OC(=O)N1CCC(C2Cc3cc(-c4ccc(C(=O)NCc5ccccn5)cc4)ccc3O2)CC1` (stereo not shown) [Example 157], 0.034 µM.
Regarding `CC(C)(C)OC(=O)N1CCC(C2(C)Cc3cc(-c4ccc(S(C)(=O)=O)cc4)ncc3O2)CC1` (stereo not shown) [Example 77, 4-[5-(4-Methanesulfonyl-phenyl)-2-methyl-2,3-dihydro-furo[2,3-c]pyridin-2-yl]-piperidine-1-carboxylic acid tert-butyl ester], the EC50 was found to be 0.014 µM.
Under `CNS(=O)(=O)c1ccc(-c2cc3c(cn2)OC(C2CCN(C(=O)OC(C)(C)C)CC2)C3)cc1` (stereo not shown) [Example 36, 4-[5-(4-Methylsulfamoyl-phenyl)-2,3-dihydro-furo[2,3-c]pyridin-2-yl]-piperidine-1-carboxylic acid tert-butyl ester] stands 0.033 µM.
